Assay results reported in US12378220B2, “WNT signaling pathway inhibitors for treatments of disease” (University of Maryland, Baltimore, priority 2016, dated 2025).
Where two headings read alike, the source gives them in different places.

Tested on: Wnt/β-catenin pathway
Test: dual-luciferase TCF/LEF reporter assay, LiCl-activated, HEK293 cells
Assay type: cell-based
Method: Lithium chloride (LiCl), which has been previously established as an activator of the Wnt/β-catenin pathway through its direct and indirect effects on GSK3β was used for pathway activation. The inhibition of the Wnt/β-catenin pathway by a compound may be determined after its incubation with cells for 24 hours.
The assay provided herein is a dual-luciferase assay to measure Wnt/β-catenin pathway activation using a TCF/LEF responsive reporter construct similar to that described previously (Thorne et al., 2010).

[1] = Homo sapiens, HEK293, 24 h, At 1 μM concentration, remaining Wnt signaling activity, read-out: RLU % (Relative Light Units in reporter gene assays)
[2] = Homo sapiens, HEK293, Table 3, values in nM, read-out: IC50
[3] = Homo sapiens, HEK293, Table 6, read-out: IC50 (nM) or remaining activity at 1 μM: IC50
[4] = Homo sapiens, HEK293, Table 4, @ 1 μM, read-out: IC50 (nM) or remaining activity at 1 μM: remaining activity
[5] = Homo sapiens, HEK293, Table 3, values in μM, read-out: IC50
[6] = Homo sapiens, HEK293, Table 5, read-out: IC50 (nM) or remaining activity at 1 μM: IC50

SMILES	activity at 1 µM [1] [%]	IC50 [3] [nM]	further results
Cc1c(C(=O)Nc2ccc3ccccc3n2)nnn1-c1ccccc1F [YW1159, 1-(2-Fluorophenyl)-5-methyl-N-(quinolin-2-yl)-1H-1,2,3-triazole-4-carboxamide]	1.4		IC50 [2]: 6.5 nM
Cc1c(C(=O)Nc2ccc3ccccc3n2)nnn1-c1ccccc1-c1ccccc1 [Compound 38, 1-([1,1′-biphenyl]-2-yl)-5-methyl-N-(quinolin-2-yl)-1H-1,2,3-triazole-4-carboxamide]		52000	
Cc1c(C(=O)Nc2ccc3ccccc3n2)nnn1-c1ccccc1Br [Compound 36, 1-(2-Bromophenyl)-5-methyl-N-(quinolin-2-yl)-1H-1,2,3-triazole-4-carboxamide]		10	
Cc1ccc(-n2nnc(C(=O)Nc3ccc4ccccc4n3)c2C)c(C)c1 [YW1179, 1-(2,4-Dimethylphenyl)-5-methyl-N-(quinolin-2-yl)-1H-1,2,3-triazole-4-carboxamide]	10.6		IC50 [2]: 130 nM
Cc1ccc(-n2c(C)cc(C(=O)Nc3nc(-c4ccccc4)cs3)c2C)cc1 [Compound 16, 2,5-dimethyl-N-(4-phenylthiazol-2-yl)-1-(p-tolyl)-1H-pyrrole-3-carboxamide]			IC50 (Homo sapiens, HEK293, Table 4, LiCl-mediated WNT signaling, read-out: IC50 (nM) or remaining activity at 1 μM: IC50): 379 nM
Cc1ccccc1-n1nnc(C(=O)Nc2ccc3ccccc3c2)c1C [YW1130, 5-Methyl-N-(naphthalen-2-yl)-1-(o-tolyl)-1H-1,2,3-triazole-4-carboxamide]	19.7		IC50 [2]: 471 nM
Cc1c(C(=O)Nc2ccc3ccccc3n2)nnn1-c1ccccc1C#N [Compound 34, 1-(2-Cyanophenyl)-5-methyl-N-(quinolin-2-yl)-1H-1,2,3-triazole-4-carboxamide]		76	
Cc1c(C(=O)Nc2ccc3ccccc3n2)nnn1-c1ccccc1N1CCOCC1 [YW1155, 5-Methyl-1-(2-morpholinophenyl)-N-(quinolin-2-yl)-1H-1,2,3-triazole-4-carboxamide]	99.8		
Cc1c(C(=O)Nc2ccc3ccccc3n2)nnn1-c1ccccc1C(N)=O [Compound 40, 1-(2-Carbamoylphenyl)-5-methyl-N-(quinolin-2-yl)-1H-1,2,3-triazole-4-carboxamide]		> 100000	
Cc1ccc(-n2c(C)cc(C(=O)Nc3cnccn3)c2C)cc1 [YW1117-2, 2,5-Dimethyl-N-(pyrazin-2-yl)-1-(p-tolyl)-1H-pyrrole-3-carboxamide]	113		
Cc1c(C(=O)Nc2ccc3ccccc3n2)nnn1-c1cccc(Cl)c1 [Compound 44, 1-(3-Chlorophenyl)-5-methyl-N-(quinolin-2-yl)-1H-1,2,3-triazole-4-carboxamide]		731	
Cc1ccc(-n2c(C)cc(C(=O)Nc3cnccn3)c2C)cc1 [Compound 15, 2,5-Dimethyl-N-(pyrazin-2-yl)-1-(p-tolyl)-1H-pyrrole-3-carboxamide]			activity at 1 µM [4]: 112%
Cc1c(C(=O)Nc2ccc3ccccc3n2)nnn1-c1ccccc1Br [YW1169, 1-(2-Bromophenyl)-5-methyl-N-(quinolin-2-yl)-1H-1,2,3-triazole-4-carboxamide]	3.2		IC50 [2]: 10 nM
Cc1c(C(=O)Nc2ccc3ccccc3n2)nnn1-c1ccccc1-c1ccccc1 [YW1180, 1-([1,1′-biphenyl]-2-yl)-5-methyl-N-(quinolin-2-yl)-1H-1,2,3-triazole-4-carboxamide]	104		IC50 [5]: 52000 nM
Cc1ccc(-n2nnc(C(=O)Nc3nc(-c4ccccc4)c(-c4ccccc4)s3)c2C)cc1 [YW1125, N-(4,5-diphenylthiazol-2-yl)-5-methyl-1-(p-tolyl)-1H-1,2,3-triazole-4-carboxamide]	55.1		
Cc1c(C(=O)Nc2ccc3ccccc3n2)nnn1-c1cccc2ccccc12 [YW1151, 5-Methyl-1-(naphthalen-1-yl)-N-(quinolin-2-yl)-1H-1,2,3-triazole-4-carboxamide]	79.3		IC50 [5]: 4000 nM
CC(=O)c1ccccc1-n1nnc(C(=O)Nc2ccc3ccccc3n2)c1C [Compound 39, 1-(2-Acetylphenyl)-5-methyl-N-(quinolin-2-yl)-1H-1,2,3-triazole-4-carboxamide]		814	
Cc1c(C(=O)Nc2ccc3ccccc3n2)nnn1-c1ccccc1N1CCOCC1 [Compound 37, 5-Methyl-1-(2-morpholinophenyl)-N-(quinolin-2-yl)-1H-1,2,3-triazole-4-carboxamide]		> 1000	
CC(=O)c1ccccc1-n1nnc(C(=O)Nc2ccc3ccccc3n2)c1C [YW1181, 1-(2-Acetylphenyl)-5-methyl-N-(quinolin-2-yl)-1H-1,2,3-triazole-4-carboxamide]	18.1		IC50 [2]: 814 nM
Cc1c(C(=O)Nc2ccc3ccccc3n2)nnn1-c1cccc(Cl)c1 [YW1173, 1-(3-Chlorophenyl)-5-methyl-N-(quinolin-2-yl)-1H-1,2,3-triazole-4-carboxamide]	26.3		IC50 [2]: 731 nM

SMILES	activity at 1 µM [1] [%]	IC50 [3] [nM]	further results
Cc1c(C(=O)Nc2ccc3ccccc3n2)nnn1-c1ccc(F)cc1[N+](=O)[O-] [Compound 41, 1-(4-Fluoro-2-nitrophenyl)-5-methyl-N-(quinolin-2-yl)-1H-1,2,3-triazole-4-carboxamide]		5000	
Cc1ccc(-n2nnc(C(=O)Nc3nc(-c4ccccc4)c(-c4ccccc4)s3)c2C)cc1 [Compound 22, N-(4,5-diphenylthiazol-2-yl)-5-methyl-1-(p-tolyl)-1H-1,2,3-triazole-4-carboxamide]			IC50 [6]: 1000 nM
Cc1ccc(-n2nnc(C(=O)Nc3ccc4ccccc4n3)c2C)cc1 [YW1127, 5-Methyl-N-(quinolin-2-yl)-1-(p-tolyl)-1H-1,2,3-triazole-4-carboxamide]	56.4		
Cc1ccc(-n2nnc(C(=O)Nc3ccc4ccccc4n3)c2C)c(C)c1 [Compound 32, 1-(2,4-Dimethylphenyl)-5-methyl-N-(quinolin-2-yl)-1H-1,2,3-triazole-4-carboxamide]		130	
Cc1ccc(-n2nnc(C(=O)Nc3ccccn3)c2C)cc1 [Compound 20, 5-Methyl-N-(pyridin-2-yl)-1-(p-tolyl)-1H-1,2,3-triazole-4-carboxamide]			activity at 1 µM (Homo sapiens, HEK293, Table 5, @ 1 μM, read-out: IC50 (nM) or remaining activity at 1 μM: remaining activity): 100%
Cc1cccc(-n2nnc(C(=O)Nc3ccc4ccccc4n3)c2C)c1C [Compound 42, 1-(2,3-Dimethylphenyl)-5-methyl-N-(quinolin-2-yl)-1H-1,2,3-triazole-4-carboxamide]		567	
CC(C)c1c(C(=O)Nc2ccc3ccccc3n2)nnn1-c1ccccc1F [YW2020, 1-(2-Fluorophenyl)-5-isopropyl-N-(quinolin-2-yl)-1H-1,2,3-triazole-4-carboxamide]	17.7		IC50 [2]: 177 nM
Cc1ccccc1-n1nnc(C(=O)Nc2nc(-c3ccccc3)cs2)c1C [Compound 30, 5-Methyl-N-(4-phenylthiazol-2-yl)-1-(o-tolyl)-1H-1,2,3-triazole-4-carboxamide]			IC50 (Table 7, read-out: IC50): 22000 nM
Cc1ccc(-n2nnc(C(=O)Nc3ccc4ccccc4n3)c2C)cc1 [Compound 27, 5-Methyl-N-(quinolin-2-yl)-1-(p-tolyl)-1H-1,2,3-triazole-4-carboxamide]			activity at 1 µM (Homo sapiens, HEK293, Table 6, @ 1 μM, read-out: IC50 (nM) or remaining activity at 1 μM: remaining activity): 56.4 ± 2%
Cc1c(C(=O)Nc2ccc3ccccc3n2)nnn1-c1ccccc1C#N [YW1157, 1-(2-Cyanophenyl)-5-methyl-N-(quinolin-2-yl)-1H-1,2,3-triazole-4-carboxamide]	6.5		IC50 [2]: 76 nM
Cc1ccc(-n2c(C)cc(C(=O)NCc3ccccc3)c2C)cc1 [Compound 17, N-benzyl-2,5-dimethyl-1-(p-tolyl)-1H-pyrrole-3-carboxamide]			activity at 1 µM [4]: 93%
Cc1ccc(-n2c(C)cc(C(=O)Nc3ccccn3)c2C)cc1 [Compound 14, 2,5-dimethyl-N-(pyridin-2-yl)-1-(p-tolyl)-1H-pyrrole-3-carboxamide]			activity at 1 µM [4]: 79.8%
COc1ccccc1-n1nnc(C(=O)Nc2ccc3ccccc3n2)c1C [Compound 35, 1-(2-Methoxyphenyl)-5-methyl-N-(quinolin-2-yl)-1H-1,2,3-triazole-4-carboxamide]		88	
Cc1ccc(-n2c(C)cc(C(=O)Nc3ccccn3)c2C)cc1 [YW1109, 2,5-Dimethyl-N-(pyridin-2-yl)-1-(p-tolyl)-1H-pyrrole-3-carboxamide]	79.8		
CCc1c(C(=O)Nc2ccc3ccccc3n2)nnn1-c1ccccc1F [Compound 45, 5-Ethyl-1-(2-fluorophenyl)-N-(quinolin-2-yl)-1H-1,2,3-triazole-4-carboxamide]			IC50 (Table 7, read-out: IC50): 47 nM
Cc1ccc(-n2nnc(C(=O)Nc3cc(C)no3)c2C)cc1 [YW1124, 5-Methyl-N-(3-methylisoxazol-5-yl)-1-(p-tolyl)-1H-1,2,3-triazole-4-carboxamide]	121		IC50 [5]: 48000 nM
Cc1ccc(-n2nnc(C(=O)Nc3ccc4c(=O)cc(C)oc4c3)c2C)cc1 [Compound 26, 5-Methyl-N-(2-methyl-4-oxo-4H-chromen-7-yl)-1-(p-tolyl)-1H-1,2,3-triazole-4-carboxamide]			IC50 [6]: > 1000 nM
Cc1c(C(=O)Nc2ccc3ccccc3n2)nnn1-c1ccccc1F [Compound 33, 1-(2-Fluorophenyl)-5-methyl-N-(quinolin-2-yl)-1H-1,2,3-triazole-4-carboxamide]		6.5	
Cc1ccc(-n2nnc(C(=O)Nc3cccc(C)n3)c2C)cc1 [YW1134, 5-Methyl-N-(6-methylpyridin-2-yl)-1-(p-tolyl)-1H-1,2,3-triazole-4-carboxamide]	79.5		IC50 [2]: 273 nM
